The source of these data is PMC10797628.

For assay [1], the target named is T1, human 5-HT1B receptor (Homo sapiens, UniProt P28222).
T1 construct: host or cells: HEK293T
The experiment in a line: Radioligand binding (saturation and competition), WT 5-HT1B. Conditions: for higher affinity at 5-HT1B over 5-HT1A receptors: affinity ratio.

Another assay addresses T2, human 5-HT1F receptor (Homo sapiens, UniProt P30939).
T2 construct: host or cells: HEK293T
T2 sequence (P30939 1-366): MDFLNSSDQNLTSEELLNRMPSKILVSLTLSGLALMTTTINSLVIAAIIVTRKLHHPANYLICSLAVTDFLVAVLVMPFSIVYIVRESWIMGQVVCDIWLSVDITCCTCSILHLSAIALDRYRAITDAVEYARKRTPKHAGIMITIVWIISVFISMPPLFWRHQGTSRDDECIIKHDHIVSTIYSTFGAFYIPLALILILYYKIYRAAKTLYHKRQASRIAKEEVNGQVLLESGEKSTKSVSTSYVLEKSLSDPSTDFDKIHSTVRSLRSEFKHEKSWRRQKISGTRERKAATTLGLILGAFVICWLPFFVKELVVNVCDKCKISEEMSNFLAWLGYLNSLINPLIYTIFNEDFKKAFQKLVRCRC
The experiment in a line: Radioligand binding (saturation and competition), WT 5-HT1F.

Assay [2] addresses T1, human 5-HT1B receptor. Kind of assay: cAMP accumulation (LANCE Ultra TR-FRET) in HEK293T cells, WT 5-HT1B. Type of assay: cell-based. Conditions: for Emax: HEK-293T; for EC50: cAMP accumulation, HEKt cells, mean ± SD. The protocol:
(§1) Briefly, cells transfected with the desired receptor construct and compounds were incubated in the dark for 90 min at 37 °C. After incubation, cAMP detection reagents were added, and TR-FRET was used to quantify the cAMP produced.
(§2) The functional activity of compounds was determined by stimulating cells expressing the desired receptor with FSK and test compound in parallel with 12 known concentrations of cAMP. The known concentrations of cAMP were used to create a standard curve for each experiment that was used to interpolate the unknown values of cAMP in wells with test compounds. […] The EC50 and EMAX values were determined using the “dose response – log[agonist] vs response (three parameter)” nonlinear regression model in Prism and transformed to pEC50 values, reported as mean ± SD.
(§3) Summary of functional assay conditions at various 5-HT1 receptor point mutation constructs.
(In general: Cyclic AMP is a second messenger, typically raised through Gs and lowered through Gi signalling.)

Another assay addresses T3, human 5-HT1D receptor (Homo sapiens, UniProt P28221).
T3 construct: host or cells: HEK293T
The experiment in a line: cAMP accumulation (LANCE Ultra TR-FRET) in HEK293T cells, WT 5-HT1D. Type of assay: cell-based. As to conditions: for Emax: HEK-293T; for EC50: cAMP accumulation, HEKt cells, mean ± SD; for higher functional potency at 5-HT1D over 5-HT1A receptors: cAMP potency ratio. The protocol: as §1, §2, §3

For assay [3], the target named is T4, Y5.38F 5-HT1B receptor (Homo sapiens, UniProt P28222, Y208F).
T4 construct: host or cells: HEK293T
T4 sequence (P28222 whole entry Y208F): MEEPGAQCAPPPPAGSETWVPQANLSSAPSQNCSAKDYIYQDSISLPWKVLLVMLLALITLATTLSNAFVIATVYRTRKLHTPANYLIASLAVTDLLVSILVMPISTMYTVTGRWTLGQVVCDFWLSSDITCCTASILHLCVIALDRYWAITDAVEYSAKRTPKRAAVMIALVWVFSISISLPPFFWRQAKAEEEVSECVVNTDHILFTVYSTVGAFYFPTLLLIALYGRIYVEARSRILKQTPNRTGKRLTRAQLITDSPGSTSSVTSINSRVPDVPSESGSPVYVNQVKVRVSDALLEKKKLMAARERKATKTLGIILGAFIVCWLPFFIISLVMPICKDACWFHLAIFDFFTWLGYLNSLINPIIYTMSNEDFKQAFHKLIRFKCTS
Kind of assay: Radioligand binding, Y5.38F 5-HT1B. Conditions: read-out: pKi 5-HT1B Receptor Y5.38F (converted).

For assay [4], the target named is T4, Y5.38F 5-HT1B receptor. Kind of assay: cAMP accumulation in HEK293T cells, Y5.38F 5-HT1B. Type of assay: cell-based. Conditions: point-mutated receptor, 3 independent experiments, read-out: pEC50 5-HT1B Receptor Y5.38F (converted). The protocol:
as §1, §2
(§4) Cell Type Receptor Cell Density [Forskolin] Incubation time
as §3

For a further assay, the target named is V45.52I 5-HT1D receptor (Homo sapiens, UniProt P28221, V190I). Kind of assay: cAMP accumulation in HEK293T cells, V45.52I 5-HT1D. Type of assay: cell-based. Also noted: host or cells: HEK293T. As to conditions: point-mutated receptor, 3 independent experiments, read-out: pEC50 5-HT1D Receptor V45.52I (converted). The protocol:
as §1, §2, §4, §3

The target in assay [5] is T5, T7.39N 5-HT1D receptor (Homo sapiens, UniProt P28221, T342N). The experiment in a line: cAMP accumulation in HEK293T cells, T7.39N 5-HT1D. Type of assay: cell-based. As to conditions: point-mutated receptor, 3 independent experiments, read-out: pEC50 5-HT1D Receptor N7.39T (converted). Further details: host or cells: HEK293T. The protocol:
as §1, §2, §4, §3

The target of assay [6] is T6, Y5.38F 5-HT1D receptor (Homo sapiens, UniProt P28221, Y197F). The experiment in a line: cAMP accumulation in HEK293T cells, Y5.38F 5-HT1D. Type of assay: cell-based. Further details: host or cells: HEK293T. As to conditions: point-mutated receptor, 3 independent experiments, read-out: pEC50 5-HT1D Receptor Y5.38F (converted). The protocol: as §1, §2, §3
T6 sequence (P28221 whole entry Y197F): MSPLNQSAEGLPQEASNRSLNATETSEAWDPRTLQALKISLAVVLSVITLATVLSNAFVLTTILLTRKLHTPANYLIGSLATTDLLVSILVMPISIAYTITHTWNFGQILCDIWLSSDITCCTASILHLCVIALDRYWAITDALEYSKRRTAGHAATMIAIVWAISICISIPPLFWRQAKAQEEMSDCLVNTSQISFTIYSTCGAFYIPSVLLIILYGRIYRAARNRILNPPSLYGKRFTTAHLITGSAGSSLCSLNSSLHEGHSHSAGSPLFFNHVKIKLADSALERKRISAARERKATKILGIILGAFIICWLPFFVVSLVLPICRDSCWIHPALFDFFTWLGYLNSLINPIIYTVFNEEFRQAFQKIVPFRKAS
In assay [7] the target is T7, Y5.38A 5-HT1D receptor (Homo sapiens, UniProt P28221, Y197A). Kind of assay: cAMP accumulation in HEK293T cells, Y5.38A 5-HT1D. Type of assay: cell-based. Also noted: host or cells: HEK293T. Conditions: point-mutated receptor, 3 independent experiments, read-out: pEC50 5-HT1D Receptor Y5.38A (converted). The protocol: as §1, §2, §3
T7 sequence (P28221 whole entry Y197A): as the sequence (P28221 whole entry Y197F) above, with F197A counted along it
In a further assay the target is S5.42A 5-HT1D receptor (Homo sapiens, UniProt P28221, S201A). The experiment in a line: cAMP accumulation in HEK293T cells, S5.42A 5-HT1D. Type of assay: cell-based. Further details: host or cells: HEK293T. As to conditions: point-mutated receptor, 3 independent experiments, read-out: pEC50 5-HT1D Receptor S5.42A (converted). The protocol: as §1, §2, §3
S5.42A 5-HT1D receptor, sequence (P28221 whole entry S201A): as the sequence (P28221 whole entry Y197F) above, with F197Y, S201A counted along it
Another assay deals with T7.39N 5-HT1B receptor (Homo sapiens, UniProt P28222, T355N). Kind of assay: Radioligand binding, T7.39N 5-HT1B.
T7.39N 5-HT1B receptor, sequence (P28222 whole entry T355N): as the sequence (P28222 whole entry Y208F) above, with F208Y, T355N counted along it
Another assay has as its target S5.42A 5-HT1B receptor (Homo sapiens, UniProt P28222, S212A). The experiment in a line: Radioligand binding, S5.42A 5-HT1B.
Assay [8] concerns the target T5, T7.39N 5-HT1D receptor. Kind of assay: Radioligand binding, T7.39N 5-HT1D.
Procedure: (§5) 48 hours after transfection with the desired receptor construct, cells were isolated for saturation and competition binding assays as previously described.[47],[48],[57] Saturation and competition radioligand binding assays were conducted in an assay buffer consisting of 50 mM Tris HCl, 10 mM MgCl2, and 0.1 mM EDTA in filtered deionized water. […] Briefly, 5–10 μg of the receptor protein, as determined by a Thermo Fisher Pierce BCA protein assay kit, was incubated with 8 concentrations of radioligand in triplicate to determine total binding. […] Nonspecific binding was determined as above for saturation assays.
(§6) For radioligand binding data, nonspecific binding was subtracted from the total binding to get specific binding. Saturation binding data was fit to the “binding saturation-specific binding with hill slope” model. Competition binding data were fit to the “binding competition-one-site fit Ki” non-linear regression model and transformed to pKi values, reported as mean ± SD.
(§7) is 50 mM Tris HCl, 10 mM MgCl2 and 0.1 mM EDTA in filtered deionized water.
Assay [9] addresses T6, Y5.38F 5-HT1D receptor. The experiment in a line: Radioligand binding, Y5.38F 5-HT1D.
Procedure: as §5, §6, §7
The target of assay [10] is T7, Y5.38A 5-HT1D receptor. The experiment in a line: Radioligand binding, Y5.38A 5-HT1D.
Procedure: as §5, §6, §7
Assay [11] concerns the target T8, V45.52I 5-HT1B receptor (Homo sapiens, UniProt P28222, V201I). The experiment in a line: Radioligand binding, V45.52I 5-HT1B.
Procedure: as §5, §6, §7
The target in assay [12] is T8, V45.52I 5-HT1B receptor. The experiment in a line: cAMP accumulation in HEK293T cells, V45.52I 5-HT1B. Type of assay: cell-based. Also noted: mutated in house (Quikchange II) HTR01B0000; host or cells: HEK293T. Conditions: point-mutated receptor, 3 independent experiments, read-out: pEC50 5-HT1B Receptor V45.52I (converted). The protocol:
as §1, §2, §4, §3

[13] abbreviates: read-out: 5-HT1B EMAX (%), WT receptor, normalized to basal (0%) and 10 μM 5-CT (100%).
Setting [14] is: read-out: 5-HT1D EMAX (%), WT receptor, normalized to basal (0%) and 10 μM 5-CT (100%).

What is called Emax is the size of the effect at its maximum, as opposed to the concentration needed.

Where two headings read alike, the source gives them in different places. Some results are limits rather than exact numbers.

S5.42A 5-HT1B receptor, sequence (P28222 whole entry S212A): as the sequence (P28222 whole entry Y208F) above, with F208Y, S212A counted along it
T3 sequence (P28221 whole entry): as the sequence (P28221 whole entry Y197F) above, with F197Y counted along it
T8 sequence (P28222 whole entry V201I): as the sequence (P28222 whole entry Y208F) above, with V201I, F208Y counted along it
T5 sequence (P28221 whole entry T342N): as the sequence (P28221 whole entry Y197F) above, with F197Y, T342N counted along it
T1 sequence (P28222 whole entry): as the sequence (P28222 whole entry Y208F) above, with F208Y counted along it
V45.52I 5-HT1D receptor, sequence (P28221 whole entry V190I): as the sequence (P28221 whole entry Y197F) above, with V190I, F197Y counted along it
Procedure for S5.42A 5-HT1B receptor: as §5, §6, §7
Procedure for T7.39N 5-HT1B receptor: as §5, §6, §7

On to `Fc1ccccc1-c1cccc2c1CC[C@H](N1CCCC1)C2` [(S)-PFPT], for which the Ki at human 5-HT1B receptor [1] (read-out: Affinity (pKi ± SD) 5-HT1B (converted)) is 12 nM; on human 5-HT1F receptor (WT receptor, [^3H]5-HT competition, mean ± SD, read-out: Affinity (pKi ± SD) 5-HT1F (converted)), > 10 µM; on Y5.38F 5-HT1B receptor [3], 15.1 nM; at T7.39N 5-HT1B receptor, 5.89 nM; at S5.42A 5-HT1B receptor it was 102 nM; at T7.39N 5-HT1D receptor [8], 4.17 nM. In addition, the results for the Ki on Y5.38F 5-HT1D receptor [9], at Y5.38A 5-HT1D receptor [10] and on V45.52I 5-HT1B receptor [11] were 41.7 nM, 42.7 nM and 14.5 nM, respectively. Besides, the Emax at human 5-HT1B receptor [2] (read-out: 5-HT1B EMAX (%)) came out at 99 ± 2%; on human 5-HT1D receptor (read-out: 5-HT1D EMAX (%)) it was 98 ± 3%. Moreover, the EC50 on human 5-HT1B receptor [2] (WT receptor, read-out: 5-HT1B pEC50 (converted)) was 56.2 nM; at human 5-HT1D receptor (WT receptor, read-out: 5-HT1D pEC50 (converted)), 57.5 nM; on Y5.38F 5-HT1B receptor [4] it was 55 nM; on V45.52I 5-HT1D receptor, 58.9 nM; at T7.39N 5-HT1D receptor [5], 18.6 nM; on Y5.38F 5-HT1D receptor [6], 240 nM. In addition, the EC50 on Y5.38A 5-HT1D receptor [7] is 191 nM; on S5.42A 5-HT1D receptor it was 309 nM; at V45.52I 5-HT1B receptor [12], 51.3 nM.

Take `CN(C)[C@H]1CCc2c(cccc2-c2ccccc2F)C1` [(S)-FPT]: the “higher affinity at 5-HT1B over 5-HT1A receptors” value at human 5-HT1B receptor [1] was 2 fold. The Ki is > 10 µM on human 5-HT1F receptor; 1.91 nM at Y5.38F 5-HT1B receptor [3]; 7.41 nM on T7.39N 5-HT1B receptor; 2.57 nM at S5.42A 5-HT1B receptor; 10.7 nM on T7.39N 5-HT1D receptor [8]; 1.29 nM at Y5.38F 5-HT1D receptor [9]. In addition, the Ki at Y5.38A 5-HT1D receptor [10] is 1.07 nM; on V45.52I 5-HT1B receptor [11], 1.91 nM. Moreover, the EC50 on human 5-HT1B receptor [2] (5-HT1B pEC50, WT receptor) was 0.49 nM; on Y5.38F 5-HT1B receptor [4], 0.813 nM; at V45.52I 5-HT1D receptor, 1.48 nM; at T7.39N 5-HT1D receptor [5], 14.1 nM; on Y5.38F 5-HT1D receptor [6] it was 1.55 nM; at Y5.38A 5-HT1D receptor [7] it was 1.45 nM. Also, the EC50 at S5.42A 5-HT1D receptor is 1.35 nM; on V45.52I 5-HT1B receptor [12], 0.776 nM. For the same compound, the Emax on human 5-HT1B receptor [2] (setting [13]) was > 90%; at human 5-HT1D receptor (setting [14]), 103 ± 3%. Also, the “5-HT1B EMAX (%)” value at human 5-HT1B receptor [2] (WT receptor, normalized to basal (0%) and 10 μM 5-CT (100%)) stood at 100 ± 2%. Also, the “higher functional potency at 5-HT1D over 5-HT1A receptors” value on human 5-HT1D receptor was ~80 fold.

As for `CN(C)[C@H]1CCc2c(cccc2-c2cccc3ccccc23)C1` [(S)-NAP], the Ki at human 5-HT1B receptor [1] (Affinity (pKi ± SD) 5-HT1B, WT receptor, [^3H]5-CT competition, mean ± SD) was 4.57 nM; at human 5-HT1F receptor it was 5.37 µM; on Y5.38F 5-HT1B receptor [3] it was 5.62 nM; on T7.39N 5-HT1B receptor it was 6.46 nM; on S5.42A 5-HT1B receptor, 5.89 nM; at T7.39N 5-HT1D receptor [8], 1.07 nM. Besides, the Ki at Y5.38F 5-HT1D receptor [9] was 0.661 nM; at Y5.38A 5-HT1D receptor [10], 70.8 nM; at V45.52I 5-HT1B receptor [11], 41.7 nM. In addition, on human 5-HT1B receptor [1], the “higher affinity at 5-HT1B over 5-HT1A receptors” value is 10 fold. The EC50 was 34.7 nM at human 5-HT1B receptor [2] (5-HT1B pEC50, WT receptor); 8.71 nM on human 5-HT1D receptor (5-HT1D pEC50, WT receptor); 35.5 nM at Y5.38F 5-HT1B receptor [4]; 257 nM at V45.52I 5-HT1D receptor; 10 nM at T7.39N 5-HT1D receptor [5]; 11.2 nM on Y5.38F 5-HT1D receptor [6]. The EC50 on Y5.38A 5-HT1D receptor [7] was 288 nM; at S5.42A 5-HT1D receptor it was 10 nM; at V45.52I 5-HT1B receptor [12], 224 nM. Moreover, the Emax at human 5-HT1B receptor [2] (setting [13]) was found to be 30 ± 4%; on human 5-HT1D receptor (setting [14]), 90 ± 3%. Further, the “higher functional potency at 5-HT1B over 5-HT1A receptors” value at human 5-HT1B receptor [2] (cAMP potency ratio) is recorded as “about 10 fold”. The “higher functional potency at 5-HT1D over 5-HT1A receptors” value at human 5-HT1D receptor is on record as ~40 fold.
